The kinase profiling compilation of Christmann-Franck et al. (2016)
“And” between values parts separate entries of the source, which are not always exact repeats. Identical values can stand only once.

Experiments:
Test in all cases: radiometric filter-binding kinase assay, Kinase HotSpot
Details in all cases: compound 0.5 µM; ATP 10 µM
CSNK1G3 (human) = CSNK1G3 (human) (UniProt Q9Y6M4)
MAPK10 (human) = MAPK10 (human) (UniProt P53779)
MAPK8 (human) = MAPK8 (human) (UniProt P45983)
MST1R (human) = MST1R (human) (UniProt Q04912)
DYRK2 (human) = DYRK2 (human) (UniProt Q92630)
RPS6KA2 KD1 KD2 (human) = RPS6KA2 KD1 KD2 (human) (UniProt Q15349)
MAPK1 (human) = MAPK1 (human) (UniProt P28482)
FYN (human) = FYN (human) (UniProt P06241)
RAF1 (human) = RAF1 (human) (UniProt P04049)
CDK2 CCNE1 (human) = CDK2 CCNE1 (human) (UniProt P24941+P24864)
PRKCB2 (human) = PRKCB2 (human) (UniProt P05771)
MAPK14 (human) = MAPK14 (human) (UniProt Q16539)
FLT1 (human) = FLT1 (human) (UniProt P17948)
CAMKK1 (human) = CAMKK1 (human) (UniProt Q8N5S9)
FGFR3 (human) = FGFR3 (human) (UniProt P22607)
MKNK2 (human) = MKNK2 (human) (UniProt Q9HBH9)
CAMKK2 (human) = CAMKK2 (human) (UniProt Q96RR4)
JAK2 JH1 JH2 (human) = JAK2 JH1 JH2 (human) (UniProt O60674)
PIM3 (human) = PIM3 (human) (UniProt Q86V86)
NEK4 (human) = NEK4 (human) (UniProt P51957)
TTK (human) = TTK (human) (UniProt P33981)
LYN (human) = LYN (human) (UniProt P07948)
STK33 (human) = STK33 (human) (UniProt Q9BYT3)
[1] = target: TYK2 JH1 catalytic (human) (UniProt P29597)
CAMK2A (human) = CAMK2A (human) (UniProt Q9UQM7)
[2] = system: PRKCQ (human), Q04759 [P330L]
NTRK2 (human) = NTRK2 (human) (UniProt Q16620)
PKN1 (human) = PKN1 (human) (UniProt Q16512)
CSNK1A1 (human) = CSNK1A1 (human) (UniProt P48729)
PRKCG (human) = PRKCG (human) (UniProt P05129)
CDK7 CCNH MNAT1 (human) = CDK7 CCNH MNAT1 (human) (UniProt P50613+P51948+P51946)
PAK1 (human) = PAK1 (human) (UniProt Q13153)
DAPK3 (human) = DAPK3 (human) (UniProt O43293)
PRKCA (human) = PRKCA (human) (UniProt P17252)
EPHB4 (human) = EPHB4 (human) (UniProt P54760)
FGFR2 (human) = FGFR2 (human) (UniProt P21802)
CDK5 CDK5R1 p35 (human) = CDK5 CDK5R1 p35 (human) (UniProt Q00535+Q15078)
DYRK1A (human) = DYRK1A (human) (UniProt Q13627)
AKT1 (human) = AKT1 (human) (UniProt P31749)
FER (human) = FER (human) (UniProt P16591)
CAMK1D (human) = CAMK1D (human) (UniProt Q8IU85)

Sequence of LYN (human) (P07948 whole entry, looked up): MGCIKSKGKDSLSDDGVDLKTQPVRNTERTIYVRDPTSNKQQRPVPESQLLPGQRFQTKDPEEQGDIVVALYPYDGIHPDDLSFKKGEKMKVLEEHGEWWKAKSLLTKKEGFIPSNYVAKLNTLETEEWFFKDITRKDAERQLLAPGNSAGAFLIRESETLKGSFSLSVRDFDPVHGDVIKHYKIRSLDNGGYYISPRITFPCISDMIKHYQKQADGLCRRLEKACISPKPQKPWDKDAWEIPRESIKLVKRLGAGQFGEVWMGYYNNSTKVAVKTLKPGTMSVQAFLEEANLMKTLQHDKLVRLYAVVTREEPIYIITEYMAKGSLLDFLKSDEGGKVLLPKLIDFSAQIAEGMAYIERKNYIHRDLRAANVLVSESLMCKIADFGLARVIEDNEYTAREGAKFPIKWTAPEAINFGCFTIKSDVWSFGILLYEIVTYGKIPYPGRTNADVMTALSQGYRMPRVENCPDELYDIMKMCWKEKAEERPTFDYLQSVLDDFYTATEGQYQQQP
Sequence of STK33 (human) (Q9BYT3 whole entry, looked up): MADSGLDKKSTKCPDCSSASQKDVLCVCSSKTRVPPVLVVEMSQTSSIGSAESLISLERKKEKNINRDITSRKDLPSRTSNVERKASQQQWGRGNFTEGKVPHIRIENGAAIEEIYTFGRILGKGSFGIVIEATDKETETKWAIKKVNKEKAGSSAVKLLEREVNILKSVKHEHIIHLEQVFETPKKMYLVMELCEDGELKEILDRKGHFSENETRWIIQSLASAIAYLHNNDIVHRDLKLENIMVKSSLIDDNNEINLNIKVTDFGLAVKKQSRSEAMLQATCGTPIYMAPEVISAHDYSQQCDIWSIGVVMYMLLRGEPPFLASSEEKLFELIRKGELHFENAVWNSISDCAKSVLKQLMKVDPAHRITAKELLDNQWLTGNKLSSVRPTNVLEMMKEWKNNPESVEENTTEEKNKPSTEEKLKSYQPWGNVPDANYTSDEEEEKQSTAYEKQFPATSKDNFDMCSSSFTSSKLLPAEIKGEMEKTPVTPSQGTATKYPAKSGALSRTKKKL
Sequence of MAPK1 (human) (P28482 whole entry, looked up): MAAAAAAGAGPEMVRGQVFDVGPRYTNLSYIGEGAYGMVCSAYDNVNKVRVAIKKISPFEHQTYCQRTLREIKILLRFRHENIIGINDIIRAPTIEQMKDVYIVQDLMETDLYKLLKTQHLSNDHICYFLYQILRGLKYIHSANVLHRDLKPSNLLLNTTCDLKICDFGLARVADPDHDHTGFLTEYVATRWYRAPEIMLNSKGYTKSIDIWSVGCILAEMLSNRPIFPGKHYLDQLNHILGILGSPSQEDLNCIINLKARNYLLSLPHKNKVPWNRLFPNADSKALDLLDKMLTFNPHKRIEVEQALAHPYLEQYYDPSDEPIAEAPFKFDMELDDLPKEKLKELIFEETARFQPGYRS
Sequence of FER (human) (P16591 whole entry, looked up): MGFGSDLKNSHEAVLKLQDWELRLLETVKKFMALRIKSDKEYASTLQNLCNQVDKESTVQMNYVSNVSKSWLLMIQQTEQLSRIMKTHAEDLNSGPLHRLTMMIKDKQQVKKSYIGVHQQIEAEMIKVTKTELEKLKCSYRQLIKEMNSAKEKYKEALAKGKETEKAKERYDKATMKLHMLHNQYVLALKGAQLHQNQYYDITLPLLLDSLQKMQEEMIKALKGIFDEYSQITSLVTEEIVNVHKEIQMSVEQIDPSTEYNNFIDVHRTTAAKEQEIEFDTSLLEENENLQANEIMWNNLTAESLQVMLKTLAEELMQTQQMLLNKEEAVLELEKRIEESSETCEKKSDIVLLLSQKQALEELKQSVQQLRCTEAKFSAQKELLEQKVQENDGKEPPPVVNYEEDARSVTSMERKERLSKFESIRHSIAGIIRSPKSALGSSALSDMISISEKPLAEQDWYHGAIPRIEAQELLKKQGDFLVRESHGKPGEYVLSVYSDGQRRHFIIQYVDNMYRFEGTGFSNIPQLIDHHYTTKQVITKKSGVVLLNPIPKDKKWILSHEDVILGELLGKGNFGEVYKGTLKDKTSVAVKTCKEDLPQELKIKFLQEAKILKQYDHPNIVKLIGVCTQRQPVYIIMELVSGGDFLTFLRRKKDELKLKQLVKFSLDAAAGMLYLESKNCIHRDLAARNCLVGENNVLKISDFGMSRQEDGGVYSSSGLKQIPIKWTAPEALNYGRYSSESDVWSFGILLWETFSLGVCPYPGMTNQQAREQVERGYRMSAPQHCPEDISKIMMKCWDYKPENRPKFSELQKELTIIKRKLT
Sequence of EPHB4 (human) (P54760 whole entry, looked up): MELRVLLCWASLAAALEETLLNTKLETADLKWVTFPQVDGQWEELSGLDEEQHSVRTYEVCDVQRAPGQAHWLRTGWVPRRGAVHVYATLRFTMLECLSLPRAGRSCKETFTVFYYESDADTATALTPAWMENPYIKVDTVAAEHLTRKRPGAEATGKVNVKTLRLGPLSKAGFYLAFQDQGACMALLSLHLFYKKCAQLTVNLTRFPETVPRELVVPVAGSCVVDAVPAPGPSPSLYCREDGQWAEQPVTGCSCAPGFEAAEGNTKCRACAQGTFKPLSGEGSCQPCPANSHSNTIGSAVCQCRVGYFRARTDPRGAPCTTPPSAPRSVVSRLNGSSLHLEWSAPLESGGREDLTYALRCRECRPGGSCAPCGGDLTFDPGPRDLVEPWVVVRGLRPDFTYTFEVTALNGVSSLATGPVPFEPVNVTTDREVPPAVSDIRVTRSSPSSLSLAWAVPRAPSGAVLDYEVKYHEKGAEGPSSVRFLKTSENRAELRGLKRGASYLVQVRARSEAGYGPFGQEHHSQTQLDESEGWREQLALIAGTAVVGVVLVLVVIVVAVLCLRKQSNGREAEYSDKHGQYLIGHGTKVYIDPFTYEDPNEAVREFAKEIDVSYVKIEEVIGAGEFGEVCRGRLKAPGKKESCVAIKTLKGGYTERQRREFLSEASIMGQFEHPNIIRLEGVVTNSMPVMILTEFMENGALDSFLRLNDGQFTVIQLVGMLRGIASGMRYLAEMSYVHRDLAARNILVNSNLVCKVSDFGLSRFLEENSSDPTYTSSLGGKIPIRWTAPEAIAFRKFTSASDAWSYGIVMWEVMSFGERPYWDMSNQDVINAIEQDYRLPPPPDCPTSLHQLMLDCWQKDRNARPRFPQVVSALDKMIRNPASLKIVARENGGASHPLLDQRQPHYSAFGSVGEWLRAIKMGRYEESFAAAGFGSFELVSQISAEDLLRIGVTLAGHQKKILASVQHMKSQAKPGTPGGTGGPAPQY
Sequence of CSNK1A1 (human) (P48729 whole entry, looked up): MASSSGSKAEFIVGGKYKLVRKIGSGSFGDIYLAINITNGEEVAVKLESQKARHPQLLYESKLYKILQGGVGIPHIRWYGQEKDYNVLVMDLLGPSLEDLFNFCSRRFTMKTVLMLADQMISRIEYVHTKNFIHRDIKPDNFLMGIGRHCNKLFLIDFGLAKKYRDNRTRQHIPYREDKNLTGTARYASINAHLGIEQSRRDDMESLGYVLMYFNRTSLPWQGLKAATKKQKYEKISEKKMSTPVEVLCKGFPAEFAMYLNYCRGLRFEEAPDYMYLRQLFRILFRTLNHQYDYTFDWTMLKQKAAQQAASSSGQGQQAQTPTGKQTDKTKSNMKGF
Sequence of FGFR3 (human) (P22607 whole entry, looked up): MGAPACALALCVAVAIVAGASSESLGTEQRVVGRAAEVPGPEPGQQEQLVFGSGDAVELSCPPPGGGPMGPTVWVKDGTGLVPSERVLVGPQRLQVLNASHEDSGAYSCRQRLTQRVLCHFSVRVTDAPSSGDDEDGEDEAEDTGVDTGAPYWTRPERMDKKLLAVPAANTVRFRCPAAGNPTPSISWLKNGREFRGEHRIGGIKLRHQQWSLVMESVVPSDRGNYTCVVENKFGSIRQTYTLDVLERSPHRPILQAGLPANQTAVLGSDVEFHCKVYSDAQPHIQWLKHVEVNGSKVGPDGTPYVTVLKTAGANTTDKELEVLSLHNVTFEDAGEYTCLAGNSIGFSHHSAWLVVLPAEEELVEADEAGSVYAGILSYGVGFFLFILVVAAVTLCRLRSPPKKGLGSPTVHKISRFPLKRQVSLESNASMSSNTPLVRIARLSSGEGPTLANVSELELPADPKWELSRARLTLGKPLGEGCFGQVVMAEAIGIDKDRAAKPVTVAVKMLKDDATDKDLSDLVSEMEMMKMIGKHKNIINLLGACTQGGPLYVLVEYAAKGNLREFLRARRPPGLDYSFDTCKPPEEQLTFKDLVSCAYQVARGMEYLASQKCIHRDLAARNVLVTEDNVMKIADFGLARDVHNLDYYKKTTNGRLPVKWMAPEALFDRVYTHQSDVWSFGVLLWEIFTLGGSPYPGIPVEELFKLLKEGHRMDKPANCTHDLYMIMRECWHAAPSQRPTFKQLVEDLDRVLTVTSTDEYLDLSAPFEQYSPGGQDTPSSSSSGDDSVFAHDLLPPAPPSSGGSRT
Sequence of DYRK2 (human) (Q92630 whole entry, looked up): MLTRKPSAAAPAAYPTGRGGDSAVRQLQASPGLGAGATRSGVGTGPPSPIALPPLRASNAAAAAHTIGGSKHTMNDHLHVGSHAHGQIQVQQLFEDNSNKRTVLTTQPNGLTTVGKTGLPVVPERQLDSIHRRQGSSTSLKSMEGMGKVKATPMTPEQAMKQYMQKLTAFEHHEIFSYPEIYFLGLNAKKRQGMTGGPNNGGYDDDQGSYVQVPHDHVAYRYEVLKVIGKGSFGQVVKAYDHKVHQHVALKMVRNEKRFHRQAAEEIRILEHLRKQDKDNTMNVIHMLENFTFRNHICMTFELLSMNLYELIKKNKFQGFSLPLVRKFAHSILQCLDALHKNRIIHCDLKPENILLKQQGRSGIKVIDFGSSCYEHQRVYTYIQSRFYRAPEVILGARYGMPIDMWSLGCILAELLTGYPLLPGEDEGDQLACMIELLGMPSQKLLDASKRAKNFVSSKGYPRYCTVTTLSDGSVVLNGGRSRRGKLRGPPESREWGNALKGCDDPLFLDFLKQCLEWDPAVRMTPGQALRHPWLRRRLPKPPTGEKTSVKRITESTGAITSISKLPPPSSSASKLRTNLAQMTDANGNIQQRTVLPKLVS

**Q.** `CCCCc1c(-c2ccc(OC)cc2)[nH]c2nccnc12` was tested. Which residual activity (CSNK1G3 (human)) did it give?
**A.** 89.2%

**Q.** And the residual activity (MAPK10 (human))?
**A.** 97.2%

**Q.** What about the residual activity (MAPK8 (human)) of the same compound?
**A.** 74.5%

**Q.** What about the residual activity (MST1R (human)) of the same compound?
**A.** 104%

**Q.** And the residual activity (DYRK2 (human))?
**A.** 92.9%

**Q.** What about the residual activity (RPS6KA2 KD1 KD2 (human)) of the same compound?
**A.** 93%

**Q.** And the residual activity (MAPK1 (human))?
**A.** 103%

**Q.** And the residual activity (FYN (human))?
**A.** 61.3%

**Q.** And the residual activity (RAF1 (human))?
**A.** 99.9%

**Q.** What about the residual activity (CDK2 CCNE1 (human)) of the same compound?
**A.** 42.1%

**Q.** And the residual activity (PRKCB2 (human))?
**A.** 106%

**Q.** What about the residual activity (MAPK14 (human)) of the same compound?
**A.** 112%

**Q.** What about the residual activity (FLT1 (human)) of the same compound?
**A.** 103%

**Q.** What about the residual activity (CAMKK1 (human)) of the same compound?
**A.** 105%

**Q.** And the residual activity (FGFR3 (human))?
**A.** 86.8%

**Q.** And the residual activity (MKNK2 (human))?
**A.** 99.3%

**Q.** And the residual activity (CAMKK2 (human))?
**A.** 79.1%

**Q.** What about the residual activity (JAK2 JH1 JH2 (human)) of the same compound?
**A.** 77.9%

**Q.** And the residual activity (PIM3 (human))?
**A.** 90.9%

**Q.** What about the residual activity (NEK4 (human)) of the same compound?
**A.** 81.3%

**Q.** And the residual activity (TTK (human))?
**A.** 87.9%

**Q.** What about the residual activity (LYN (human)) of the same compound?
**A.** 108% and 85.5%

**Q.** And the residual activity (STK33 (human))?
**A.** 84.6%

**Q.** What about the residual activity [1] of the same compound?
**A.** 38.8%

**Q.** What about the residual activity (CAMK2A (human)) of the same compound?
**A.** 100%

**Q.** And the residual activity [2]?
**A.** 107%

**Q.** And the residual activity (NTRK2 (human))?
**A.** 73.4%

**Q.** And the residual activity (PKN1 (human))?
**A.** 89.1%

**Q.** And the residual activity (CSNK1A1 (human))?
**A.** 92.9%

**Q.** And the residual activity (PRKCG (human))?
**A.** 94.4%

**Q.** What about the residual activity (CDK7 CCNH MNAT1 (human)) of the same compound?
**A.** 92.6%

**Q.** And the residual activity (PAK1 (human))?
**A.** 83.7%

**Q.** And the residual activity (DAPK3 (human))?
**A.** 102%

**Q.** What about the residual activity (PRKCA (human)) of the same compound?
**A.** 92.7%

**Q.** What about the residual activity (EPHB4 (human)) of the same compound?
**A.** 89.5%

**Q.** And the residual activity (FGFR2 (human))?
**A.** 89.5%

**Q.** And the residual activity (CDK5 CDK5R1 p35 (human))?
**A.** 48.3%

**Q.** What about the residual activity (DYRK1A (human)) of the same compound?
**A.** 102%

**Q.** And the residual activity (AKT1 (human))?
**A.** 113%

**Q.** And the residual activity (FER (human))?
**A.** 59.8%

**Q.** What about the residual activity (CAMK1D (human)) of the same compound?
**A.** 97.9%

**Q.** Which residual activity (CSNK1G3 (human)) does the source give for `COc1cc2ncnc(Nc3ccc(OCc4ccccc4)cc3)c2cc1OC` here?
**A.** 92.9%

**Q.** And the residual activity (MAPK10 (human))?
**A.** 84.5%

**Q.** And the residual activity (MAPK8 (human))?
**A.** 102%

**Q.** And the residual activity (MST1R (human))?
**A.** 106%

**Q.** What about the residual activity (DYRK2 (human)) of the same compound?
**A.** 111%

**Q.** And the residual activity (RPS6KA2 KD1 KD2 (human))?
**A.** 100%

**Q.** And the residual activity (MAPK1 (human))?
**A.** 100%

**Q.** And the residual activity (FYN (human))?
**A.** 86.3%

**Q.** And the residual activity (RAF1 (human))?
**A.** 61%

**Q.** And the residual activity (CDK2 CCNE1 (human))?
**A.** 96.7%

**Q.** What about the residual activity (PRKCB2 (human)) of the same compound?
**A.** 106%

**Q.** What about the residual activity (MAPK14 (human)) of the same compound?
**A.** 101%

**Q.** And the residual activity (FLT1 (human))?
**A.** 96%

**Q.** What about the residual activity (CAMKK1 (human)) of the same compound?
**A.** 126%

**Q.** What about the residual activity (FGFR3 (human)) of the same compound?
**A.** 102%

**Q.** And the residual activity (MKNK2 (human))?
**A.** 88.1%

**Q.** And the residual activity (CAMKK2 (human))?
**A.** 99.7%

**Q.** What about the residual activity (JAK2 JH1 JH2 (human)) of the same compound?
**A.** 94.3%

**Q.** And the residual activity (PIM3 (human))?
**A.** 119%

**Q.** And the residual activity (NEK4 (human))?
**A.** 86.9%

**Q.** What about the residual activity (TTK (human)) of the same compound?
**A.** 96.8%

**Q.** What about the residual activity (LYN (human)) of the same compound?
**A.** 91.2% and 92.8%

**Q.** And the residual activity (STK33 (human))?
**A.** 109%

**Q.** What about the residual activity [1] of the same compound?
**A.** 103%

**Q.** And the residual activity (CAMK2A (human))?
**A.** 107%

**Q.** And the residual activity [2]?
**A.** 102%

**Q.** And the residual activity (NTRK2 (human))?
**A.** 92.5%

**Q.** And the residual activity (PKN1 (human))?
**A.** 101%

**Q.** What about the residual activity (CSNK1A1 (human)) of the same compound?
**A.** 105%

**Q.** And the residual activity (PRKCG (human))?
**A.** 98.5%

**Q.** And the residual activity (CDK7 CCNH MNAT1 (human))?
**A.** 98.8%

**Q.** What about the residual activity (PAK1 (human)) of the same compound?
**A.** 93.2%

**Q.** What about the residual activity (DAPK3 (human)) of the same compound?
**A.** 99.2%

**Q.** And the residual activity (PRKCA (human))?
**A.** 93.9%

**Q.** And the residual activity (EPHB4 (human))?
**A.** 94.6%

**Q.** What about the residual activity (FGFR2 (human)) of the same compound?
**A.** 103%

**Q.** And the residual activity (CDK5 CDK5R1 p35 (human))?
**A.** 103%

**Q.** And the residual activity (DYRK1A (human))?
**A.** 105%

**Q.** And the residual activity (AKT1 (human))?
**A.** 103%

**Q.** What about the residual activity (FER (human)) of the same compound?
**A.** 90.8%

**Q.** What about the residual activity (CAMK1D (human)) of the same compound?
**A.** 104%
